# How the values were obtained:
# [1] = tested on: progenitors from the bone marrow; assay: Mobilization of progenitors from the bone marrow (NSAID comparison); settings: in vivo
# [2] = tested on: circulating endothelial colony forming cells (ECFC); assay: Circulating endothelial colony forming cells (ECFC) in human volunteers before and after meloxicam; type: in vivo; settings: post 5 day regimen; before treatment only 4/7 had detectable ECFC
# Method: For analysis of circulating ECFC, PB mononuclear cells were plated in media at 37° C., 5% CO2, 5% O2 in 6 well culture plates coated with type 1 collagen. Media was be replaced every other day for 7-14 days at which time the adherent colonies of endothelial cells (EC) are removed with Trypsin and replated in collagen coated culture wells at a single cell per well. After 14 days each well is visually examined to determine whether there are 2 or more cells per well and if so, the total number of EC counted.
smiles,measurement,setting,value
Cc1onc(-c2ccccc2)c1-c1ccc(S(N)(=O)=O)cc1 [valdecoxib],ability to mobilize progenitors from the bone marrow,[1],unable to mobilize
CC(=O)Oc1ccccc1C(=O)O [aspirin],ability to mobilize progenitors from the bone marrow,[1],highly effective
"Cc1cnc(NC(=O)C2=C(O)c3ccccc3S(=O)(=O)N2C)s1 [Meloxicam, meloxicam]",volunteers with detectable ECFC in 40 mL of blood post treatment,[2],7/7

# From US20140065706A1, “MATERIALS AND METHODS FOR MOBILIZING CELLS INCLUDING CD34+, HEMATOPOIETIC COLONY FORMING, AND ENDOTHELIAL COLONY FORMING CELLS” (Indiana University Research and Technology Corp., priority 2010, published 2014)
